Patent publication USRE38994E1, “Pyropheophorbides conjugates and their use in photodynamic therapy” (Health Research, Inc., priority 1988, dated 2006)

Key:
[1] = system: SMT-F tumor; assay: In vivo tumor photosensitizing activity (photodynamic tumor treatment); parameters: species or system DBA/2 mice; details: for Tumor Response Day 1 (Number of non-palpable tumors/Number treated tumors) / Tumor Response Day 7 (Number of non-palpable tumors/Number treated tumors) / Tumor Response Day 30 (Number of non-palpable tumors/Number treated tumors) / Tumor Response Day 90 (Number of non-palpable tumors/Number treated tumors): time interval 24 hours, 135 J/cm^2 laser at 75 mW/cm^2
Protocol: When 2-[1-(O-hexyl)ethyl]devinyl pyropheophorbide-a - structure (5) in Scheme 1: S—RO—where R═(CH2)5CH3 and m═H, (formula IIa) synthesized as indicated (5.0 mg) is dissolved in Tween 80 (0.1 ml) and mixed with 10 ml Hanks Balanced Salt Solution (HBSS), a solution of approximately 0.5 mg/ml in […] is produced after filtration through a 0.22 AM Millipore filter. […] […] Alternately, a Xenon arc lamp filtered to emit a broader band width near 670 nm and approximately 283 Joules/cm^2 can be used.
This progresses to frank tumor necrosis over the next few days. […] At 30 days post treatment, six of the 10 tumors remain non-palpable, and one remains tumor-free to 90 days post treatment.

[2] = Normal foot response / skin clearance after light exposure; assay type: in vivo, albino Swiss mice (HaICR); details: for Normal Foot Response Maximum Reaction (score): same light conditions as tumor treatment, score 0.3 - slight edema, 0 - no reaction
Protocol: Six albino Swiss mice (HaICR) are injected intravenously with a dose of 0.1 mg/kg body weight of the compound of formula IIa prepared as in Example 1. After approximately 24 h, the hind foot of the animal is exposed to the same dose of either laser light at 660-670 nm (135 Joules/cm^2) or the Xenon arc lamp (283 Joules/cm^2) as above. The reaction of the foot is scored for damage over the next few days to determine the maximum effect, which in this case is a value 0.3 equivalent to slight edema. If the internal between the injection and light treatment is extended to approximately 48 h, the foot reaction is zero (no damage incurred), indicating either clearance or metabolism of the sensitizer.

[3] = system: tumor; assay: in vivo tumoricidal activity assay; details: injected at a dose of 5 mg/kg
[4] = injected dose 0.1 mg/kg, wavelength 659
[5] = injected dose 0.3 mg/kg, wavelength 659
[6] = injected dose 0.3 mg/kg, wavelength 665
[7] = injected dose 0.3 mg/kg, wavelength 670
[8] = injected dose 0.3 mg/kg, wavelength 680
[9] = ten mice, 0.3 mg/kg intravenously, approx. 24 h later laser light at 660-670 nm, 135 Joules/cm^2
[10] = injected dose 0.1 mg/kg, wavelength 660
[11] = injected dose 0.3 mg/kg, wavelength 660

SMILES: CCCCCCOC(C)c1c(C)c2cc3nc(c4c5[nH]c(cc6nc(cc1[nH]2)C(C)=C6CC)c(C)c5C(=O)C4)[C@@H](CCC(=O)O)[C@@H]3C (stereo partly shown) [Formula II R5 = —O—(CH2)5CH3 R7 = —CO2H, 2-{1(O-hexyl)ethyl}devinyl pyropheophorbide-a]
- Tumor Response Day 1 (Number of non-palpable tumors/Number treated tumors) ([1]; injected dose 0.05 mg/kg, wavelength 659): 0/40
- Tumor Response Day 1 (Number of non-palpable tumors/Number treated tumors) [1, 4]: 6/6
- Tumor Response Day 7 (Number of non-palpable tumors/Number treated tumors) [1, 4]: 6/6
- Tumor Response Day 30 (Number of non-palpable tumors/Number treated tumors) [1, 4]: 1/6
- Tumor Response Day 90 (Number of non-palpable tumors/Number treated tumors) [1, 4]: 1/6
- Tumor Response Day 1 (Number of non-palpable tumors/Number treated tumors) ([1]; injected dose 0.3 mg/kg, wavelength 655): 0/10
- Tumor Response Day 1 (Number of non-palpable tumors/Number treated tumors) [1, 5]: 5/5
- Tumor Response Day 7 (Number of non-palpable tumors/Number treated tumors) [1, 5]: 4/5
- Tumor Response Day 30 (Number of non-palpable tumors/Number treated tumors) [1, 5]: 0/5
- Tumor Response Day 1 (Number of non-palpable tumors/Number treated tumors) [1, 6]: 10/10
- Tumor Response Day 7 (Number of non-palpable tumors/Number treated tumors) [1, 6]: 10/10
- Tumor Response Day 30 (Number of non-palpable tumors/Number treated tumors) [1, 6]: 2/10
- Tumor Response Day 90 (Number of non-palpable tumors/Number treated tumors) [1, 6]: 0/10
- Tumor Response Day 1 (Number of non-palpable tumors/Number treated tumors) [1, 7]: 10/10
- Tumor Response Day 7 (Number of non-palpable tumors/Number treated tumors) [1, 7]: 10/10
- Tumor Response Day 30 (Number of non-palpable tumors/Number treated tumors) [1, 7]: 6/10
- Tumor Response Day 90 (Number of non-palpable tumors/Number treated tumors) [1, 7]: 1/10
- Tumor Response Day 1 (Number of non-palpable tumors/Number treated tumors) [1, 8]: 1/10
- Tumor Response Day 7 (Number of non-palpable tumors/Number treated tumors) [1, 8]: 0/10
- Tumor state at 7 days post treatment [1, 9]: all tumors remain non-palpable and necrotic
- Tumor state the day after light treatment [1, 9]: all the tumors are seen to be flat (non-palpable)
- Tumor-free to 90 days post treatment (number of the 10) [1, 9]: one
- Tumors remaining non-palpable at 30 days post treatment [1, 9]: six of the 10
- Foot reaction, maximum effect (damage score) ([2]; 0.1 mg/kg intravenously, hind foot exposed after approx. 24 h, 660-670 nm laser 135 Joules/cm^2 or Xenon arc lamp 283 Joules/cm^2, 0.3 equivalent to slight edema): 0.3
- Foot reaction (damage score) ([2]; 0.1 mg/kg intravenously, interval between injection and light treatment approx. 48 h, zero = no damage incurred): zero
- Normal Foot Response Maximum Reaction (score) ([2]; table row of injected dose 0.1 mg/kg, time interval 24 hours): 0.3
- Normal Foot Response Maximum Reaction (score) ([2]; table row of injected dose 0.3 mg/kg, time interval 48-72 hours): 0

SMILES: C=Cc1c(C)c2cc3nc(c4c5[nH]c(cc6nc(cc1[nH]2)C(C)=C6CC)c(C)c5C(=O)[C@@H]4C(=O)OC)[C@@H](CCC(=O)OC)[C@@H]3C [Methyl pheophorbide-a]
- in vivo tumoricidal activity [3]: inactive

SMILES: CCCCCCOC(C)c1c(C)c2cc3nc(c4c5[nH]c(cc6nc(cc1[nH]2)C(C)=C6CC)c(C)c5C(=O)C4)[C@@H](CCC(=O)OC)[C@@H]3C (stereo partly shown) [Methyl-2-{1(O-hexyl)ethyl}-devinyl pyropheophorbide]
- Tumor Response Day 1 (Number of non-palpable tumors/Number treated tumors) [1, 10]: 5/5
- Tumor Response Day 30 (Number of non-palpable tumors/Number treated tumors) [1, 10]: 0/5
- Tumor Response Day 1 (Number of non-palpable tumors/Number treated tumors) [1, 11]: 6/6
- Tumor Response Day 7 (Number of non-palpable tumors/Number treated tumors) [1, 11]: 6/6
- Tumor Response Day 30 (Number of non-palpable tumors/Number treated tumors) [1, 11]: 3/6
- Tumor Response Day 90 (Number of non-palpable tumors/Number treated tumors) [1, 11]: 3/6
